Patent publication US20190151341A1, “APPLICATION OF TENVERMECTIN FOR PREVENTING AND TREATING PARASITE INFECTION” (ZHEJIANG HISUN PHARMACEUTICAL CO., LTD., priority 2016, published 2019)

Columns and labels:
swine Haematopinus = assay: Killing effect on swine Haematopinus on the body surface; type: in vivo; conditions: pigs, 1% injection 0.2 mg/kg bw s.c., until the 7th day and in the following 3 weeks
Excerpt: (§1) Test agents: 1% ivermectin injection, 1% tenvermectin A injection, and 1% tenvermectin B injection as obtained in Example 1.
(§2) Test animals and grouping: pigs cultured in the same farm were selected, and 40 pigs naturally infected with nematodes in the digestive tract were selected for testing through fecal examination. The average weight of the test pigs was 30-50 kg. Forty pigs were randomly divided into 4 groups, 10 for each group. The first group was the ivermectin control group, the second group was the tenvermectin A group, and the third group was the tenvermectin B group. All the medicated groups were injected subcutaneously in the neck according to 0.2 mg/kg·bw. The forth group was a blank group and was not administered.
(§3) 1) The feces of the pigs in each group were collected and examined one by one a day before administration, and worm eggs were counted by the McMaster's method. The number of eggs per gram of feces (EPG) was counted and the condition of Haematopinus on the body surface was observed.
(§4) 2) 1, 2, 3 and 4 weeks after administration, the feces of the pigs in each group were examined by the McMaster's method, and the EPG was counted and the changes of Haematopinus on the body surface were observed.
4) The killing effects of swine Haematopinus of the agents were assessed according to the survival of swine Haematopinus on the 7th day after administration.

[1] = test system: digestive tract nematodes; assay: Repelling nematode in digestive track of sheep (fecal egg count); type: in vivo; conditions: for Number of sheep negatively conversed: sheep (20 per group); for Number of sheep negatively conversed / Egg reduction rate (%) / Negative conversion rate (%): 1% injection 0.2 mg/kg bw s.c.; for Number of sheep negatively conversed / Egg reduction rate (%) / Negative conversion rate (%) / EPG after administration: 9th day after administration; for Egg reduction rate (%) / Negative conversion rate (%) / EPG after administration / EPG before administration: sheep; for EPG after administration / EPG before administration: eggs per gram of feces; for EPG after administration: 0.2 mg/kg bw s.c.; for EPG before administration: baseline a day before administration
Excerpt: as §1
Test animals and grouping: sheep grazed under the same condition were selected, and 80 sheep of 0.8-2.0 years old naturally infected with digestive tract nematodes were selected through fecal examination. The average weight of the test sheep was 30 kg. The 80 sheep were randomly divided into 4 groups, 20 heads for each group. The first group was the ivermectin control group, the second group was the tenvermectin A group, and the third group was the tenvermectin B group. All the medicated groups were injected subcutaneously in the neck according to 0.2 mg/kg·bw. The fourth group was a blank group and was not medicated.
1) The feces of the sheep in each group were collected and examined one by one a day before administration, and the worm eggs were counted by the McMaster's method, and the number of eggs per gram of feces (EPG) was counted.
2) On the 9th day after administration, the sheep of each group were subjected to a fecal examination by McMaster's method, and EPG was counted.
3) The egg negative conversion rates and egg reduction rates were calculated according to a conventional method to assess the efficacy.

Sarcoptes mites = assay: Treatment of Sarcoptes mites of sheep (skin scrapings, live mites); type: in vivo; conditions: 1% injection 0.2 mg/kg bw s.c.; for Negative conversion number: sheep (10 per group); for Negative conversion rate (%): sheep
Excerpt: Test agents: 1% ivermectin injection, 1% tenvermectin A injection and 1% tenvermectin B injection as obtained in Example 1.
Test animals and grouping: sheep grazed under the same conditions were selected. Upon parasitological examination, 40 sheep which had been infected with sheep Sarcoptes mites were selected. The 40 sheep were randomly divided into 4 groups, 10 heads for each group. The first group was the ivermectin control group, the second group was the tenvermectin A group, and the third group was the tenvermectin B group. All the medicated groups were injected subcutaneously in the neck according to 0.2 mg/kg·bw. The fourth group was a blank group and was not medicated.
Test methods: the changes of clinical symptoms were observed. The skin of sheep was scratched using a surgical blade with glycerin at the junction of the affected part and the healthy skin of the diseased sheep until the skin slightly bled. The skin scraps were taken then were placed in a dish and brought back to the laboratory. Then the skin scraps were placed on a slide, a drop of aqueous solution of 50% glycerol was added, and a cover slip was covered, and then the skin scraps were checked under a low magnification microscope. It was confirmed to be positive if live Sarcoptes mites were observed. Samples were taken before administration and at 1, 2, 3 and 4 weeks after administration to be examined. The samples were examined under a microscope, based on whether live mites were observed, the samples can be determined to be positive as long as one live mite was observed. Changes of clinical symptoms were observed as references.

[2] = test system: swine nematode (nematodes in the digestive tract); assay: Repelling swine nematode in naturally infected pigs (fecal egg count, McMaster's method); type: in vivo; conditions: 1% injection 0.2 mg/kg bw s.c.
Excerpt: as §1, §2, §3, §4
3) The negative conversion rates and egg reduction rates of the test pigs were calculated by a conventional method to assess the efficacy of repelling swine nematode.

zebrafish = assay: Toxicity to zebrafish, semi-static method, 96 hours
Protocol: Test agents: avermectin, milbemycin, ivermectin, tenvermectin A and tenvermectin B were all from Zhejiang Hisun Pharmaceutical Co., Ltd. The samples were formulated into 50 mg/ml mother liquors with DMF.
Test fish and water: zebrafish (Brachydanio rerio) was purchased from Zhejiang Academy of Agricultural Sciences, with the same size, average body length of 2-3 cm and average body weight of 0.3 g. The zebrafish was domesticated for 7 days indoors before the test. […] Feeding was stopped 1 day before the test and the fish were not fed during the test. The test water was tap water with residual chlorine removed by exposure to the sun for more than 24 hours, and the pH thereof was 6.8.
Test methods: semi-static method. Three level differences were provided for each sample: 0.5 ppm, 1.0 ppm and 1.5 ppm, and three parallel groups were provided for each level difference, 10 zebrafish were raised for each group, and blank controls (one group without agents and one group with only solvent) were provided. The corresponding volume of mother liquor was taken according to the concentration as required for each sample, and the volume of each sample was adjusted to 150 μl with DMF, and then each sample was added to the test group (containing 1.6 L of water). The room temperature was controlled at 22±2° C. for 96 hours, and the water was changed every 24 hours and the samples were re-added. The fish mortality rate was recorded for the first 8 hours and at 24, 48, 72 and 96 hours, and the dead fish were removed in time.

Structure (SMILES)	active Haematopinus observed on the body surface (swine Haematopinus)	Number of sheep negatively conversed [1]	Egg reduction rate (%) [1] [%]	Negative conversion rate (%) [1] [%]	EPG after administration [1]	EPG before administration [1]	Negative conversion number (Sarcoptes mites; 1st week)	Negative conversion number (Sarcoptes mites; 2nd week)	Negative conversion number (Sarcoptes mites; 3rd week)	Negative conversion number (Sarcoptes mites; 4th week)	Negative conversion rate (%) (Sarcoptes mites; 1st week)	Negative conversion rate (%) (Sarcoptes mites; 2nd week)	Negative conversion rate (%) (Sarcoptes mites; 3rd week)	Negative conversion rate (%) (Sarcoptes mites; 4th week)	Egg reduction rate (%) ([2]; 1st week after administration)	Negative conversion rate (%) ([2]; 1st week after administration)	Egg reduction rate (%) ([2]; 2nd week after administration)	Negative conversion rate (%) ([2]; 2nd week after administration)	Egg reduction rate (%) ([2]; 3rd week after administration)	Negative conversion rate (%) ([2]; 3rd week after administration)	further results
COC1CC(OC2C(C)OC(OC3C(C)=CCC4CC(CC5(CCC(C)C(C)O5)O4)OC(=O)C4C=C(C)C(O)C5OCC(=CC=CC3C)C45O)CC2OC)OC(C)C1O (stereo not shown) [Tenvermectin A, tenvermectin A]	no active Haematopinus was found	20	100	100	0	11600	8	9	10	10	80	90	100	100	79.6	70	89.5	80	98.6	90	Egg reduction rate (%) ([2]; 4th week after administration): 78.8%; Negative conversion rate (%) ([2]; 4th week after administration): 70%; Survival condition (survival rates/%) (zebrafish; 0.5 ppm, 8 h): 100%; Survival condition (survival rates/%) (zebrafish; 0.5 ppm, 24 h): 100%; Survival condition (survival rates/%) (zebrafish; 0.5 ppm, 48 h): 100%; Survival condition (survival rates/%) (zebrafish; 0.5 ppm, 72 h): 100%; Survival condition (survival rates/%) (zebrafish; 0.5 ppm, 96 h): 100%; Survival condition (survival rates/%) (zebrafish; 1.0 ppm, 8 h): 100%; Survival condition (survival rates/%) (zebrafish; 1.0 ppm, 24 h): 100%; Survival condition (survival rates/%) (zebrafish; 1.0 ppm, 48 h): 100%; Survival condition (survival rates/%) (zebrafish; 1.0 ppm, 72 h): 100%; Survival condition (survival rates/%) (zebrafish; 1.0 ppm, 96 h): 100%; Survival condition (survival rates/%) (zebrafish; 1.0 ppm, 96 h, listed as tenvermectin A): greater than 50%; Survival condition (survival rates/%) (zebrafish; 1.5 ppm, 8 h): 100%; Survival condition (survival rates/%) (zebrafish; 1.5 ppm, 24 h): 100%; Survival condition (survival rates/%) (zebrafish; 1.5 ppm, 48 h): 100%; Survival condition (survival rates/%) (zebrafish; 1.5 ppm, 72 h): 100%; Survival condition (survival rates/%) (zebrafish; 1.5 ppm, 96 h): 100%; 96-hour LC50 on zebrafish (zebrafish; 96 hours, semi-static): > 1 ppm
CC[C@H]1O[C@]2(CC[C@@H]1C)C[C@@H]1C[C@@H](C/C=C(\C)[C@@H](O[C@H]3C[C@H](OC)[C@@H](O[C@H]4C[C@H](OC)[C@@H](O)[C@H](C)O4)[C@H](C)O3)[C@@H](C)/C=C/C=C3\CO[C@@H]4[C@H](O)C(C)=C[C@@H](C(=O)O1)[C@]34O)O2 [Tenvermectin B, tenvermectin B]	no active Haematopinus was found	20	100	100	0	12200	9	10	10	10	90	100	100	100	85.3	80	100	100	100	100	Egg reduction rate (%) ([2]; 4th week after administration): 95.8%; Negative conversion rate (%) ([2]; 4th week after administration): 90%; Survival condition (survival rates/%) (zebrafish; 0.5 ppm, 8 h): 100%; Survival condition (survival rates/%) (zebrafish; 0.5 ppm, 24 h): 70%; Survival condition (survival rates/%) (zebrafish; 0.5 ppm, 48 h): 50%; Survival condition (survival rates/%) (zebrafish; 0.5 ppm, 72 h): 0%; Survival condition (survival rates/%) (zebrafish; 1.0 ppm, 8 h): 53%; Survival condition (survival rates/%) (zebrafish; 1.0 ppm, 24 h): 0%; Survival condition (survival rates/%) (zebrafish; 1.5 ppm, 8 h): 10%; Survival condition (survival rates/%) (zebrafish; 1.5 ppm, 24 h): 0%; toxicity to zebrafish, in words (zebrafish; in vivo): did not reach the level of middle toxic
